According to PubChem BioAssay AID1963428 (Molecular Pharmacology Branch, DTP, NCI, 2024):

Tested on: 171881-019-R-J1-PDC complex spheroid growth, % test/control
Experiment: Anticancer human tumor 171881-019-R-J1-PDC patient-derived invasive breast carcinoma cell line growth inhibition [Asc]
Details: for IC50: curve of first compound; for viability, T/C: stronger effect = lower value
Outline: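 Complex spheroids combining tumor cells with HUVEC endothelial cells and human MSCs, at 37 degrees C, 5% CO2; agents tested alone or combined, half-log dilutions from at or near clinical Cmax, or 10 microM if Cmax unknown.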

[1] = second compound 0.01 µM, first compound 0.00316 µM
[2] = second compound 0.01 µM, first compound 0.01 µM
[3] = second compound 0.01 µM, first compound 0.0316 µM
[4] = second compound 0.01 µM, first compound 0.1 µM
[5] = second compound 0.01 µM, first compound 0.316 µM
[6] = second compound 0.01 µM, first compound 1 µM
[7] = second compound 0.0316 µM, first compound 0.00316 µM
[8] = second compound 0.0316 µM, first compound 0.01 µM
[9] = second compound 0.0316 µM, first compound 0.0316 µM
[10] = second compound 0.0316 µM, first compound 0.1 µM
[11] = second compound 0.0316 µM, first compound 0.316 µM
[12] = second compound 0.0316 µM, first compound 1 µM
[13] = second compound 0.1 µM, first compound 0.00316 µM
[14] = second compound 0.1 µM, first compound 0.01 µM
[15] = second compound 0.1 µM, first compound 0.0316 µM
[16] = second compound 0.1 µM, first compound 0.1 µM
[17] = second compound 0.1 µM, first compound 0.316 µM
[18] = second compound 0.1 µM, first compound 1 µM
[19] = second compound 0.316 µM, first compound 0.00316 µM
[20] = second compound 0.316 µM, first compound 0.01 µM
[21] = second compound 0.316 µM, first compound 0.0316 µM
[22] = second compound 0.316 µM, first compound 0.1 µM
[23] = second compound 0.316 µM, first compound 0.316 µM
[24] = second compound 0.316 µM, first compound 1 µM
[25] = second compound 1 µM, first compound 0.00316 µM
[26] = second compound 1 µM, first compound 0.01 µM
[27] = second compound 1 µM, first compound 0.0316 µM
[28] = second compound 1 µM, first compound 0.1 µM
[29] = second compound 1 µM, first compound 0.316 µM
[30] = second compound 1 µM, first compound 1 µM
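Throughout, for viability, T/C: spheroids exposed to compounds for 7 days.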

Row | SMILES | IC50 (second compound 0.01 µM) | IC50 (second compound 0.0316 µM) | IC50 (second compound 0.1 µM) | IC50 (second compound 0.316 µM) | IC50 (second compound 1 µM) | viability, T/C [1] | viability, T/C [2] | viability, T/C [3] | viability, T/C [4] | viability, T/C [5] | viability, T/C [6] | viability, T/C [7] | viability, T/C [8] | viability, T/C [9] | viability, T/C [10] | viability, T/C [11] | viability, T/C [12] | viability, T/C [13] | viability, T/C [14] | viability, T/C [15] | further results
1 | CCN1CCN(Cc2ccc(Nc3ncc(F)c(-c4cc(F)c5nc(C)n(C(C)C)c5c4)n3)nc2)CC1 + CNC(C)C(=O)NC1CN(S(=O)(=O)c2cccc(S(=O)(=O)N3CCC4CCC(C(=O)NC(c5ccccc5)c5ccccc5)N4C(=O)C(NC(=O)C(C)NC)C3)c2)CCC2CCC(C(=O)NC(c3ccccc3)c3ccccc3)N2C1=O | > 1000 nM | > 1000 nM | > 1000 nM | > 1000 nM | > 1000 nM | 94.1% | 102% | 102% | 113% | 131% | 147% | 89.7% | 97.9% | 112% | 124% | 149% | 143% | 112% | 107% | 117% | viability, T/C [16]: 128%; viability, T/C [17]: 143%; viability, T/C [18]: 174%; viability, T/C [19]: 101%; viability, T/C [20]: 110%; viability, T/C [21]: 121%; viability, T/C [22]: 130%; viability, T/C [23]: 142%; viability, T/C [24]: 143%; viability, T/C [25]: 89.7%; viability, T/C [26]: 110%; viability, T/C [27]: 117%; viability, T/C [28]: 139%; viability, T/C [29]: 131%; viability, T/C [30]: 146%
2 | COc1c(OCCCN2CCOCC2)ccc2c3n(c(=NC(=O)c4cnc(N)nc4)nc12)CCN3 + CNC(C)C(=O)NC1CN(S(=O)(=O)c2cccc(S(=O)(=O)N3CCC4CCC(C(=O)NC(c5ccccc5)c5ccccc5)N4C(=O)C(NC(=O)C(C)NC)C3)c2)CCC2CCC(C(=O)NC(c3ccccc3)c3ccccc3)N2C1=O | 32.4 nM | 30.8 nM | 29.6 nM | 28.1 nM | 28.7 nM | 196% | 133% | 49.7% | 15.9% | 4.61% | 2.61% | 215% | 137% | 46.5% | 15.6% | 4.08% | 1.97% | 203% | 135% | 43.8% | viability, T/C [16]: 13.1%; viability, T/C [17]: 3.67%; viability, T/C [18]: 2.63%; viability, T/C [19]: 182%; viability, T/C [20]: 122%; viability, T/C [21]: 41%; viability, T/C [22]: 11.9%; viability, T/C [23]: 3.14%; viability, T/C [24]: 1.94%; viability, T/C [25]: 210%; viability, T/C [26]: 125%; viability, T/C [27]: 43.8%; viability, T/C [28]: 10.4%; viability, T/C [29]: 3.22%; viability, T/C [30]: 2.13%
